Reference: patent publication US20250382344A1, “Soluble GLP1/GIP/NPY2 Receptor Triple Agonists” (Boehringer Ingelheim International GmH, priority 2024, published 2025)
pEC50: −log10 of the molar value.

Experiments:
hNPY2R = biological target: T1, hNPY2R (Homo sapiens, UniProt P49146); experiment: hNPY2R CreLuc assay in 0.5% and 100% plasma (HEK-293 CRE-luciferase reporter cells); assay type: cell-based; settings: 100% human plasma, HEK-293 reporter cells, read-out: hNPY2R 100% hP
T1 construct: expressed in transfected cells; host or cells: HEK-293 CRE-luciferase reporter cells
T1 sequence (P49146 1-381): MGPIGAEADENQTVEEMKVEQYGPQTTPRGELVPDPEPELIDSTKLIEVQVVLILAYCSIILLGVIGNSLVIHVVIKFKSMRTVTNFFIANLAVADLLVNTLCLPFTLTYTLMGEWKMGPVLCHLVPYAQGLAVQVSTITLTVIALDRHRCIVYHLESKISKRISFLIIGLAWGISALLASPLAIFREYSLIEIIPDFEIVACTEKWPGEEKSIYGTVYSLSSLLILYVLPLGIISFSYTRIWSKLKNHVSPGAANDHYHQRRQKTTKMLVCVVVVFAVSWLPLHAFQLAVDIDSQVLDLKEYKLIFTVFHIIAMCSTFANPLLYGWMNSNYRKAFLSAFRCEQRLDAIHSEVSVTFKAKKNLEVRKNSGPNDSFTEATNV
Source text: CHO and HEK-293 recombinant cell lines express a luciferase reporter gene under control of the CAMP responsive element (CRE). As a second recombinant protein the GLP-1 and NPY2 receptors were expressed in the reporter gene HEK cells, and the GIP receptor was expressed in the reporter gene CHO cells, respectively. Stimulation of these recombinant cells with an agonist leads to an increase of intracellular CAMP levels. In the presence of CAMP, the transcription factor CRE binding protein (CREB) binds to the CRE and to the CREB binding protein (CBP), which leads to transcription of the luciferase reporter gene. Peptides upon serial-dilution in 100% DMSO were transferred into 384-well assay plates with 5 μl pre-dispensed assay buffer (1×HBSS, 20 mM HEPES, pH7.4 supplemented with 0.5% human plasma) using acoustic dispensing on a Labcyte ECHO. Cryo-preserved transgenic reporter gene cells were thawed in assay buffer. 20 μl (10.000 cells/well) were added to the plate with the peptides and incubated for 4 hours at 37° C. in a humidified incubator. Following incubation, assay plates are equilibrated to room temperature, followed by addition of 25 μl of Bright-Glo™ Luciferase reagent, incubation at room temperature for 10 minutes and analysis of luminescence (Envision Reader). […] EC50 values were calculated by non-linear regression using sigmoid concentration-response with variable slope.
The same assays were run in the presence of 100% plasma with no additional buffer constituents.

hGIPR = biological target: T2, hGIPR (Homo sapiens, UniProt P48546); experiment: hGIPR CreLuc assay in 0.5% and 100% plasma (CHO CRE-luciferase reporter cells); assay type: cell-based; settings: 0.5% human plasma, read-out: hGIPR 0.5% hP
T2 construct: expressed in transfected cells; host or cells: CHO CRE-luciferase reporter cells
T2 sequence (P48546 22-466): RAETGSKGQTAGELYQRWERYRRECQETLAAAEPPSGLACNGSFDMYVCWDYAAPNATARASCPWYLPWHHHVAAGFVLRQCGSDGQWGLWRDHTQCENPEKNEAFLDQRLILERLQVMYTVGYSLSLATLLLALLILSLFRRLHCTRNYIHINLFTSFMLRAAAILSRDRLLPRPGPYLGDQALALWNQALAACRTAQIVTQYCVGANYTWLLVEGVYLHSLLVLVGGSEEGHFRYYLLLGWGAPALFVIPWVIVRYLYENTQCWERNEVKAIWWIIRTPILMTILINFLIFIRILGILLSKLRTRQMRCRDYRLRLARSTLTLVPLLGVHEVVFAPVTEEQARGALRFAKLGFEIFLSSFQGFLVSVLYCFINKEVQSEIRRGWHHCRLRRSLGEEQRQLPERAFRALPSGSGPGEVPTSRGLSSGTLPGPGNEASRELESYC

[1] = Solubility in 0.1 M phosphate buffer at pH 7; assay type: physicochemical; settings: 0.1 M phosphate buffer at pH 7, 10 mg/mL final peptide concentration, shaking 2 hours at room temperature, peptides as TFA-salts; measured sample pH 6.5-7.0

pEC50 (hNPY2R) | pEC50 (hGIPR) | solubility at 2 h [1] | SMILES
6.85 | 9.22 | 4300 µg/mL | CC[C@H](C)[C@H](NC(=O)[C@H](CC(C)C)NC(=O)[C@H](Cc1c[nH]cn1)NC(=O)[C@H](CCCNC(=N)N)NC(=O)[C@@H](NC(=O)[C@H](Cc1ccccc1)NC(=O)[C@H](C)NC(=O)C(C)(C)NC(=O)[C@H](CCC(N)=O)NC(=O)[C@H](C)NC(=O)[C@H](CCC(N)=O)NC(=O)[C@H](CCCCN)NC(=O)[C@H](CCC(=O)O)NC(=O)[C@H](CC(C)C)NC(=O)C(C)(C)NC(=O)[C@@H](NC(=O)[C@H](CO)NC(=O)[C@H](Cc1ccc(O)cc1)NC(=O)[C@H](CC(=O)O)NC(=O)[C@H](CO)NC(=O)[C@@H](NC(=O)[C@H](Cc1ccccc1)NC(=O)[C@@H](NC(=O)CNC(=O)[C@H](CCC(=O)O)NC(=O)C(C)(C)NC(=O)[C@@H](N)Cc1ccc(O)cc1)[C@@H](C)O)[C@@H](C)O)[C@@H](C)CC)C(C)C)C(=O)N[C@@H](CC(N)=O)C(=O)N[C@@H](CCCCNC(=O)CC[C@H](NC(=O)CC[C@H](NC(=O)CC[C@H](NC(=O)CC[C@H](NC(=O)CC[C@H](NC(=O)CC[C@H](NC(=O)CC[C@H](NC(=O)CCCCCCCCCCCCCCCCC(=O)O)C(=O)O)C(=O)O)C(=O)O)C(=O)O)C(=O)O)C(=O)O)C(=O)O)C(=O)NC(C)(C)C(=O)N[C@H](C(=O)N[C@@H](CCCNC(=N)N)C(=O)N[C@@H](CCC(N)=O)C(=O)N[C@@H](CCCNC(=N)N)C(=O)N[C@@H](Cc1ccc(O)cc1)C(N)=O)[C@@H](C)O [Compound 38, Y-Aib-E-G-T-F-T-S-D-Y-S-I-Aib-L-E-K-Q-A-Q-Aib-A-F-V-R-H-L-I-N-K(1,3)-Aib-T-R-Q-R-Y-NH2.C18DA-gGlu-gGlu-gGlu-gGlu-gGlu-gGlu-gGlu(1,2)]
6.87 | 8.77 | 3100 µg/mL | CC[C@H](C)[C@H](NC(=O)[C@H](CC(C)C)NC(=O)[C@H](Cc1c[nH]cn1)NC(=O)[C@H](CCCNC(=N)N)NC(=O)[C@@H](NC(=O)[C@H](Cc1ccccc1)NC(=O)[C@H](C)NC(=O)C(C)(C)NC(=O)[C@H](CCC(N)=O)NC(=O)[C@H](C)NC(=O)[C@H](CCC(N)=O)NC(=O)[C@H](CCCCN)NC(=O)[C@H](CCC(=O)O)NC(=O)[C@H](CC(C)C)NC(=O)C(C)(C)NC(=O)[C@@H](NC(=O)[C@H](CO)NC(=O)[C@H](Cc1ccc(O)cc1)NC(=O)[C@H](CC(=O)O)NC(=O)[C@H](CO)NC(=O)[C@@H](NC(=O)[C@H](Cc1ccccc1)NC(=O)[C@@H](NC(=O)CNC(=O)[C@H](CCC(=O)O)NC(=O)C(C)(C)NC(=O)[C@@H](N)Cc1ccc(O)cc1)[C@@H](C)O)[C@@H](C)O)[C@@H](C)CC)C(C)C)C(=O)N[C@@H](CC(N)=O)C(=O)N[C@@H](CCCCNC(=O)[C@@H](N)CCCCNC(=O)CC[C@H](NC(=O)CC[C@H](NC(=O)CC[C@H](NC(=O)CC[C@H](NC(=O)CC[C@H](NC(=O)CC[C@H](NC(=O)CCCCCCCCCCCCCCCCC(=O)O)C(=O)O)C(=O)O)C(=O)O)C(=O)O)C(=O)O)C(=O)O)C(=O)N[C@@H](Cc1c[nH]c2ccccc12)C(=O)N[C@H](C(=O)N[C@@H](CCCNC(=N)N)C(=O)N[C@@H](CCC(N)=O)C(=O)N[C@@H](CCCNC(=N)N)C(=O)N[C@@H](Cc1ccc(O)cc1)C(N)=O)[C@@H](C)O [Compound 172, Y-Aib-E-G-T-F-T-S-D-Y-S-I-Aib-L-E-K-Q-A-Q-Aib-A-F-V-R-H-L-I-N-K(1,3)-W-T-R-Q-R-Y-NH2.C18DA-gGlu-gGlu-gGlu-gGlu-gGlu-gGlu-eLys(1,2)]
